According to patent publication US12065436B2, “Cardiac sarcomere inhibitors” (Cytokinetics, Inc., priority 2018, dated 2024):

Biological target: bovine cardiac myofibrils (full-length cardiac myosin ATPase in the native sarcomere) (Bos taurus (Bovine), UniProt Q9BE39)
Experiment: Skinned bovine cardiac myofibril ATPase assay (PK/LDH-coupled)
Type: biochemical
Conditions: Ca2+ activating to 75% of maximal rate; for CDMF75 IC15: concentration giving 15% inhibition; for IC50: read-out: CDMF75 IC50
Outline: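 Triton-skinned bovine left-ventricle myofibrils (1 mg/mL) in PM 12 buffer (12 mM PIPES, 2 mM MgCl2, pH 6.8) with 50 μM ATP, 0.6 mM EGTA and CaCl2 set for 50% or 75% activation. Steady-state ATPase inhibition followed by PK/LDH-coupled NADH oxidation at 340 nm.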

Sequence of bovine cardiac myofibrils (full-length cardiac myosin ATPase in the native sarcomere) (Q9BE39 whole entry): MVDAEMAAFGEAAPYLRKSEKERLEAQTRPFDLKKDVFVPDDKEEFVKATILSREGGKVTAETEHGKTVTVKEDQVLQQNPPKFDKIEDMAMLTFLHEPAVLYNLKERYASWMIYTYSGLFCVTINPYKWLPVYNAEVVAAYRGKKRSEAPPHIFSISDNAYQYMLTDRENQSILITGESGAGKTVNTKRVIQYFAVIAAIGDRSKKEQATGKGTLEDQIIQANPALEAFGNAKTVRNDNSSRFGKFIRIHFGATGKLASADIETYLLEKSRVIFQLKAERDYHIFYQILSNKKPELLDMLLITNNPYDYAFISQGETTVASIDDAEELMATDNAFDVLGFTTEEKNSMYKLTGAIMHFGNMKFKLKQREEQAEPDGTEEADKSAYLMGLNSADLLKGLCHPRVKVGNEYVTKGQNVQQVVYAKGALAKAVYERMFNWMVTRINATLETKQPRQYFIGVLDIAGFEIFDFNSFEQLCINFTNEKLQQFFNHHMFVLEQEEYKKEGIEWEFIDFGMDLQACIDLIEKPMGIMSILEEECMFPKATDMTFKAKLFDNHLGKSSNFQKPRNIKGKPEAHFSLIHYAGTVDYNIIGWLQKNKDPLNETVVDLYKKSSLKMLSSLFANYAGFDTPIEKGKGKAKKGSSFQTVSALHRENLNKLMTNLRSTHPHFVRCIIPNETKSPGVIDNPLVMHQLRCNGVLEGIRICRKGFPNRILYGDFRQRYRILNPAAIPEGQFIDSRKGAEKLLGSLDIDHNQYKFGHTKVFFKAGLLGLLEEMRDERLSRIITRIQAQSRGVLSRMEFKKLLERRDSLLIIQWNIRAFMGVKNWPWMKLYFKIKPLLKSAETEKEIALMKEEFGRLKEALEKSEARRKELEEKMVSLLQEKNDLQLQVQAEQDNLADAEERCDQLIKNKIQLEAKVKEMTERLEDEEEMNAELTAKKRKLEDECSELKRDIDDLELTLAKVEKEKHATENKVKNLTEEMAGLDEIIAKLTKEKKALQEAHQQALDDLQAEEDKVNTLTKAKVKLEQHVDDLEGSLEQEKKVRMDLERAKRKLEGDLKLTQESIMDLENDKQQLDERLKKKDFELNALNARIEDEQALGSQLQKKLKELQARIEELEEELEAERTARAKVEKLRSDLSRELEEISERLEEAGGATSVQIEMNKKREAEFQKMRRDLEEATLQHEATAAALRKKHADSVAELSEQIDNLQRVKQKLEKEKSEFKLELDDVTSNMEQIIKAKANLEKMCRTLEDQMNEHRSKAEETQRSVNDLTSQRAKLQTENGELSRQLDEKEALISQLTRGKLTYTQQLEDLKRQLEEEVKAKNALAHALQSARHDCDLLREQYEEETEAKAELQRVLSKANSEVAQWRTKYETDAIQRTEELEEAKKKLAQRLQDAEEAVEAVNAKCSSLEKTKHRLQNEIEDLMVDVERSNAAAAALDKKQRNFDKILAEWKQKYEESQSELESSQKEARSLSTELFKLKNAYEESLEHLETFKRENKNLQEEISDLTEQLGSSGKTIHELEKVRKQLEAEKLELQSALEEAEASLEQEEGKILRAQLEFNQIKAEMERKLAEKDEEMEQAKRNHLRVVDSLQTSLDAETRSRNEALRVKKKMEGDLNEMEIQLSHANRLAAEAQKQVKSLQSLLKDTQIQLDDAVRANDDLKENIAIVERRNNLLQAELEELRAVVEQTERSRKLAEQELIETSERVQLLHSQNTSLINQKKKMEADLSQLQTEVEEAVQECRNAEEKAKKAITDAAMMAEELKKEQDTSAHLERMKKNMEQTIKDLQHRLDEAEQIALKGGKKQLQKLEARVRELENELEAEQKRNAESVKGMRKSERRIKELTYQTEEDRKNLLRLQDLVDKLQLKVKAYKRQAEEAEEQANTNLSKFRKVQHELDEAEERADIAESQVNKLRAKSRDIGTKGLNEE
Sequence of bovine cardiac myofibrils (full-length cardiac myosin ATPase in the native sarcomere) (P85100 whole entry partner): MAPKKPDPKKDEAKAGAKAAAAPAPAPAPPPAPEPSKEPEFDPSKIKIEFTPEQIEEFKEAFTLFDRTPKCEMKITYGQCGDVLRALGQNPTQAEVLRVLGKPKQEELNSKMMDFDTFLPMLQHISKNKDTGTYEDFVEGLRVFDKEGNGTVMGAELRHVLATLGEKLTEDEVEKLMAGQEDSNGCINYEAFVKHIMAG
Sequence of bovine cardiac myofibrils (full-length cardiac myosin ATPase in the native sarcomere) (Q3SZE5 whole entry partner): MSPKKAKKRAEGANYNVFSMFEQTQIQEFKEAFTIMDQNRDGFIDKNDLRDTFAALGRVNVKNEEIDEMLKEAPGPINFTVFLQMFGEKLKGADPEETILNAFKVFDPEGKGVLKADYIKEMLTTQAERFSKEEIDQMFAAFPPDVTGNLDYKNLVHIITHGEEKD

Row | Compound | CDMF75 IC15 [nM] | IC50 [nM]
1 | CC(C)c1nc(-c2ccc3c(c2)CC[C@H]3NC(=O)c2cn[nH]c2)no1 [Compound 488, (R)-N-(5-(5-isopropyl-1,2,4-oxadiazol-3-yl)-2,3-dihydro-1H-inden-1-yl)-1H-pyrazole-4-carboxamide] | 1100 | 4300
2 | CCc1nc(-c2ccc3c(c2)CC[C@H]3NC(=O)OCC(C)(C)OC)no1 [Compound 359, 2-methoxy-2-methylpropyl (R)-(5-(5-ethyl-1,2,4-oxadiazol-3-yl)-2,3-dihydro-1H-inden-1-yl)carbamate] | 2300 | 9500
3 | Cc1cnnc(-c2ccc3c(c2)CC[C@H]3NC(=O)c2ccnn2C)c1 [Compound 383, (R)-1-methyl-N-(5-(5-methylpyridazin-3-yl)-2,3-dihydro-1H-inden-1-yl)-1H-pyrazole-5-carboxamide] | 3400 | 11600
4 | Cc1cc(C(=O)N[C@@H]2COc3cc(-c4noc(C(F)F)n4)ccc32)n(C)n1 [Compound 191, (S)-N-(6-(5-(difluoromethyl)-1,2,4-oxadiazol-3-yl)-2,3-dihydrobenzofuran-3-yl)-1,3-dimethyl-1H-pyrazole-5-carboxamide] | 300 | 900
5 | CCc1nc(-c2ccc3c(c2)CCC[C@H]3NC(=O)c2ccnn2C)no1 [Compound 526, (R)-N-(6-(5-ethyl-1,2,4-oxadiazol-3-yl)-1,2,3,4-tetrahydronaphthalen-1-yl)-1-methyl-1H-pyrazole-5-carboxamide] | 400 | 1300
6 | CC(=O)OCc1nc(-c2ccc3c(c2)CCC3NC(=O)c2cn(C)nc2C)no1 (centres unmarked) [Compound 74, (3-(1-(1,3-dimethyl-1H-pyrazole-4-carboxamido)-2,3-dihydro-1H-inden-5-yl)-1,2,4-oxadiazol-5-yl)methyl acetate] | 22300 | > 39200
7 | CCc1nc(-c2ccc3c(c2)OCC3NC(=O)c2cc(C)nn2C)no1 (centres unmarked) [Compound 230, N-(6-(5-ethyl-1,2,4-oxadiazol-3-yl)-2,3-dihydrobenzofuran-3-yl)-1,3-dimethyl-1H-pyrazole-5-carboxamide] | 600 | 1800
8 | [2H]C([2H])([2H])c1nc(-c2ccc3c(c2)CC[C@H]3NC(=O)c2cn(C)nc2C)no1 [Compound 246, (R)-1,3-dimethyl-N-(5-(5-(methyl-d3)-1,2,4-oxadiazol-3-yl)-2,3-dihydro-1H-inden-1-yl)-1H-pyrazole-4-carboxamide] | 1100 | 3500
9 | Cn1nccc1C(=O)NC1CCc2cc(-c3noc(C(F)F)n3)ccc21 (centres unmarked) [Compound 35, N-(5-(5-(difluoromethyl)-1,2,4-oxadiazol-3-yl)-2,3-dihydro-1H-inden-1-yl)-1-methyl-1H-pyrazole-5-carboxamide] | 500 | 1600
10 | Cc1nc(-c2ccc3c(c2)CCC3NC(=O)c2ccnc(N)c2)no1 (centres unmarked) [Compound 33, 2-amino-N-(5-(5-methyl-1,2,4-oxadiazol-3-yl)-2,3-dihydro-1H-inden-1-yl)isonicotinamide] | 1300 | 4300
11 | CCc1noc(-c2ccc3c(c2)CC[C@H]3NC(=O)c2nnn(C)n2)n1 [Compound 256, (R)-N-(5-(3-ethyl-1,2,4-oxadiazol-5-yl)-2,3-dihydro-1H-inden-1-yl)-2-methyl-2H-tetrazole-5-carboxamide] | 500 | 1700
12 | CCc1nc(-c2ccc3c(c2)CC[C@H]3NC(=O)c2cccc(CO)c2F)no1 [Compound 654, (R)-N-(5-(5-ethyl-1,2,4-oxadiazol-3-yl)-2,3-dihydro-1H-inden-1-yl)-2-fluoro-3-(hydroxymethyl)benzamide] | 600 | 2200
13 | Cn1cc(C(=O)N[C@@H]2CCc3cc(-c4nc(C5CC5)no4)ccc32)cn1 [Compound 258, (R)-N-(5-(3-cyclopropyl-1,2,4-oxadiazol-5-yl)-2,3-dihydro-1H-inden-1-yl)-1-methyl-1H-pyrazole-4-carboxamide] | 1500 | 5700
14 | Cn1nccc1C(=O)N[C@@H]1CCc2cc(-c3ccccc3)ccc21 [Compound 372, (R)-1-methyl-N-(5-phenyl-2,3-dihydro-1H-inden-1-yl)-1H-pyrazole-5-carboxamide] | 3500 | 15700
15 | Cc1nc(-c2ccc3c(c2)CC[C@H]3NC(=O)c2oncc2C)no1 [Compound 113, (R)-4-methyl-N-(5-(5-methyl-1,2,4-oxadiazol-3-yl)-2,3-dihydro-1H-inden-1-yl)isoxazole-5-carboxamide] | 300 | 1300
16 | [2H]C([2H])([2H])c1nc(-c2ccc3c(c2)CC[C@H]3NC(=O)OC)no1 [Compound 308, methyl (R)-(5-(5-(methyl-d3)-1,2,4-oxadiazol-3-yl)-2,3-dihydro-1H-inden-1-yl)carbamate] | 700 | 2800

Row | Compound | CDMF75 IC15 [nM] | IC50 [nM]
17 | [2H]C([2H])([2H])c1nc(-c2ccc3c(c2)CC[C@H]3NC(=O)c2cnn(C)c2)no1 [Compound 244, (R)-1-methyl-N-(5-(5-(methyl-d3)-1,2,4-oxadiazol-3-yl)-2,3-dihydro-1H-inden-1-yl)-1H-pyrazole-4-carboxamide] | 1600 | 5400
18 | COCCn1cc(C(=O)N[C@@H]2CCc3cc(-c4noc(COC)n4)ccc32)cn1 [Compound 512, (R)-1-(2-methoxyethyl)-N-(5-(5-(methoxymethyl)-1,2,4-oxadiazol-3-yl)-2,3-dihydro-1H-inden-1-yl)-1H-pyrazole-4-carboxamide] | 4500 | 18200
19 | CCc1nc(-c2ccc3c(c2)CC[C@H]3NC(=O)c2cnn(CC3COC3)c2)no1 [Compound 506, (R)-N-(5-(5-ethyl-1,2,4-oxadiazol-3-yl)-2,3-dihydro-1H-inden-1-yl)-1-(oxetan-3-ylmethyl)-1H-pyrazole-4-carboxamide] | 4500 | 20000
20 | [2H]C([2H])([2H])c1nc(-c2ccc3c(c2)CC[C@H]3NC(=O)c2cnn(CCO)c2)no1 [Compound 519, (R)-1-(2-hydroxyethyl)-N-(5-(5-(methyl-d3)-1,2,4-oxadiazol-3-yl)-2,3-dihydro-1H-inden-1-yl)-1H-pyrazole-4-carboxamide] | 1900 | 8700
21 | Cc1nc(-c2ccc3c(c2)CCC3NC(=O)c2oc(C)nc2C)no1 (centres unmarked) [Compound 53, 2,4-dimethyl-N-(5-(5-methyl-1,2,4-oxadiazol-3-yl)-2,3-dihydro-1H-inden-1-yl)oxazole-5-carboxamide] | 2500 | 8800
22 | Cc1cc(C(=O)N[C@@H]2CCc3cc(-c4noc(C5CCC5)n4)ccc32)ccn1 [Compound 412, (R)-N-(5-(5-cyclobutyl-1,2,4-oxadiazol-3-yl)-2,3-dihydro-1H-inden-1-yl)-2-methylisonicotinamide] | 500 | 1800
23 | CCc1nc(-c2ccc3c(c2)OC[C@H]3NC(=O)OCCO)no1 [Compound 744, 2-hydroxyethyl N-[(3S)-6-(5-ethyl-1,2,4-oxadiazol-3-yl)-2,3-dihydro-1-benzofuran-3-yl]carbamate] | 300 | 1300
24 | O=C(NC1CCc2cc(-c3noc(C(F)F)n3)ccc21)c1ccnc(O)c1 (centres unmarked) [Compound 95, N-(5-(5-(difluoromethyl)-1,2,4-oxadiazol-3-yl)-2,3-dihydro-1H-inden-1-yl)-2-hydroxyisonicotinamide] | 1900 | 8000
25 | Cc1nocc1C(=O)N[C@@H]1CCc2cc(-c3noc(C(F)F)n3)ccc21 [Compound 677, (R)-N-(5-(5-(difluoromethyl)-1,2,4-oxadiazol-3-yl)-2,3-dihydro-1H-inden-1-yl)-3-methylisoxazole-4-carboxamide] | 300 | 900
26 | Cc1nc(-c2ccc3c(c2)CCC3NC(=O)c2ncn(C)n2)no1 (centres unmarked) [Compound 119, 1-methyl-N-(5-(5-methyl-1,2,4-oxadiazol-3-yl)-2,3-dihydro-1H-inden-1-yl)-1H-1,2,4-triazole-3-carboxamide] | 39200 | > 39200
27 | Cc1nc(-c2ccc3c(c2)CCC3NC(=O)Nc2ccncn2)no1 (centres unmarked) [Compound 98, 1-(5-(5-methyl-1,2,4-oxadiazol-3-yl)-2,3-dihydro-1H-inden-1-yl)-3-(pyrimidin-4-yl)urea] | 13100 | > 39200
28 | [2H]C([2H])([2H])c1noc(-c2ccc3c(c2)OC[C@H]3NC(=O)c2ccnn2C)n1 [Compound 312, (S)-1-methyl-N-(6-(3-(methyl-d3)-1,2,4-oxadiazol-5-yl)-2,3-dihydrobenzofuran-3-yl)-1H-pyrazole-5-carboxamide] | 700 | 2400
29 | CCc1nc(-c2ccc3c(c2)CC[C@H]3NC(=O)c2cnn(CC(N)=O)c2)no1 [Compound 475, (R)-1-(2-amino-2-oxoethyl)-N-(5-(5-ethyl-1,2,4-oxadiazol-3-yl)-2,3-dihydro-1H-inden-1-yl)-1H-pyrazole-4-carboxamide] | 900 | 3800
30 | COCc1nc(-c2ccc3c(c2)CC[C@H]3NC(=O)c2cc(CO)ccn2)no1 [Compound 673, (R)-4-(hydroxymethyl)-N-(5-(5-(methoxymethyl)-1,2,4-oxadiazol-3-yl)-2,3-dihydro-1H-inden-1-yl)picolinamide] | 2800 | 13000
31 | CC(=O)N1CC[C@@H]1C(=O)N[C@@H]1CCc2cc(-c3noc(C4CC4)n3)ccc21 [Compound 331, (R)-1-acetyl-N-((R)-5-(5-cyclopropyl-1,2,4-oxadiazol-3-yl)-2,3-dihydro-1H-inden-1-yl)azetidine-2-carboxamide] | 20000 | > 39200
